PMC8469912, “Naproxen Based 1,3,4-Oxadiazole Derivatives as EGFR Inhibitors: Design, Synthesis, Anticancer, and Computational Studies” (Pharmaceuticals, 2021)
Values after ≈ are worked out from the molar mass of the structure shown.

Tests used:
EGFR = EGFR (Homo sapiens, UniProt P00533); assay: In vitro EGFR kinase inhibitory activity (ELISA, EGFR Erb B1 kinase kit)
Protocol: Briefly, solutions of kinase/peptide and ATP were prepared prior to use. […] Then, 5 mL of this prepared solution was added into 96 well plates, incubated for 1 h and determined by an ELISA Reader (Perkin Elmer, Waltham, MA, USA). Each experiment was repeated three times and IC50 represented as mean ± S.E, was calculated using Graph Pad Prism 5.

HepG2 (Hepatocellular) = assay: Antiproliferative activity, sulphorhodamine B (SRB) assay, HepG2; format: cell-based; conditions: Homo sapiens, HepG2, cytotoxicity, HepG2 liver cancer cells, mean of three independent experiments
Protocol: (§1) The cytotoxicity of the new isolated compounds was evaluated against MCF-7 (breast cells), HepG2 (Hepatocellular) and HCT-116 (colorectal cells) human cancer cells using sulphorhodamine B assay (SRB). This assay was performed as previously published.
(§2) The antiproliferative activity of the target compounds was assessed on three cancer lines, MCF-7, HepG2 and HCT-116 cells using sulforhodamine assay. […].

[1] = test system: HCT-116 (colorectal cells); assay: Antiproliferative activity, sulphorhodamine B (SRB) assay, HCT-116; format: cell-based; conditions: Homo sapiens, HCT-116, cytotoxicity, HCT-116 colorectal cancer cells, mean of three independent experiments
Protocol: as §1, §2

MCF-7 (breast cells) = assay: Antiproliferative activity, sulphorhodamine B (SRB) assay, MCF-7; format: cell-based; conditions: Homo sapiens, MCF7, cytotoxicity, MCF-7 breast cancer cells, mean of three independent experiments
Protocol: as §1, §2

HCT 116 = assay: Apoptosis, acridine orange/ethidium bromide staining, HCT 116; format: cell-based, human; conditions: HCT 116, AO/EtBr dual staining, 48 h, fluorescent microscope
Protocol: (§3) AO and EtBr are DNA binding dyes. They have been used for detection of the morphological features of apoptotic and necrotic cells. The stainings were performed according the protocol as previously published.
(§4) The MCF-7, HepG2 and HCT 116 cancer cells were categorized by AO/EtBr dual staining. The different colors of the cells indicate different stages of apoptosis. […] and examined under a fluorescent microscope. Regularly stained green with normal, round, intact nuclei and cytoplasm indicates the viability of the normal cell (control).

HepG2 = assay: Apoptosis, acridine orange/ethidium bromide staining, HepG2; format: cell-based, human; conditions: HepG2, AO/EtBr dual staining, 48 h, fluorescent microscope
Protocol: as §3, §4

MCF-7 = assay: Apoptosis, acridine orange/ethidium bromide staining, MCF-7; format: cell-based, human; conditions: MCF-7, AO/EtBr dual staining, 48 h, fluorescent microscope
Protocol: as §3, §4

EGFR, sequence (P00533 25-1210): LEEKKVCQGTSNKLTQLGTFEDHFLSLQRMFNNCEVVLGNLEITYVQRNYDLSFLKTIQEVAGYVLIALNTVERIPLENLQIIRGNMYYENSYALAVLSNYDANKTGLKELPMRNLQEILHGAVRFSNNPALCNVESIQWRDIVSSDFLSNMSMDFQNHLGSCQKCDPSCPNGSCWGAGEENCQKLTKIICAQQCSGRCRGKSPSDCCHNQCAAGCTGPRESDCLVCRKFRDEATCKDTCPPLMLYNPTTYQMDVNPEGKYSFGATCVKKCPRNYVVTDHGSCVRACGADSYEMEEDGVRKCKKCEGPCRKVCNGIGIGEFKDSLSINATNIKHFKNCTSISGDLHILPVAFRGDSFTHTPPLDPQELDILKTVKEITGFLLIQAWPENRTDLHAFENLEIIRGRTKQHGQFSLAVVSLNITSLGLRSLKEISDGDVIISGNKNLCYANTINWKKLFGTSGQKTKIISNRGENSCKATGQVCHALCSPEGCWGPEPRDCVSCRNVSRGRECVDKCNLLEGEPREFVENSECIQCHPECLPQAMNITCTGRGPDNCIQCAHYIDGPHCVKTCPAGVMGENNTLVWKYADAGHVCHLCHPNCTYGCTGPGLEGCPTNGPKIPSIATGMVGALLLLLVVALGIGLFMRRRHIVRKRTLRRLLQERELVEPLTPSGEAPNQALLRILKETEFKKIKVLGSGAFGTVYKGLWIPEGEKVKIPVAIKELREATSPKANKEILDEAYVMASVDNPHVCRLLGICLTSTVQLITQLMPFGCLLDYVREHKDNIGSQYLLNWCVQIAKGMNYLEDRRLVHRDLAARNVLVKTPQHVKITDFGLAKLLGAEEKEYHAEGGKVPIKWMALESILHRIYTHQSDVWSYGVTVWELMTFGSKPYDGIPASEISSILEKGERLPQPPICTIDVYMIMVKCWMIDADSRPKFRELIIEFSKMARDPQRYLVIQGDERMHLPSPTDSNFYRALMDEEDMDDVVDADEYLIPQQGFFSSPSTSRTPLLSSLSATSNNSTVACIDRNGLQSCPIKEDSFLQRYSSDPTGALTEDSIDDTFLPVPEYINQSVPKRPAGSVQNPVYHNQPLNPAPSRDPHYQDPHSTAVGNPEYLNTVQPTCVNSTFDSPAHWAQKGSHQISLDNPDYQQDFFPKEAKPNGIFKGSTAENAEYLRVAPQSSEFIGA

COc1ccc2cc([C@H](C)c3nnc(SCc4cn(-c5ccc(F)cc5)nn4)o3)ccc2c1 [Compound 8]
IC50 (EGFR): 7310 ± 250 nM | melting point: 99 to 100 °C | IC50 (HepG2 (Hepatocellular)): 25.5 µg/mL (≈ 55.2 µM) | IC50 [1]: 15.7 µg/mL (≈ 33.9 µM) | IC50 (MCF-7 (breast cells)): 7.38 µg/mL (≈ 16 µM)

COc1ccc2cc([C@H](C)c3nnc(SCc4cn(-c5ccc(F)cc5F)nn4)o3)ccc2c1 [Compound 9]
IC50 (EGFR): 710 ± 170 nM | Early apoptosis (cell death) (HCT 116): significant rate of cell death in early apoptosis | Necrosis (HCT 116): does not cause death of the necrosis pathway | Early apoptosis (cell death) (HepG2): significant rate of cell death in early apoptosis | Necrosis (HepG2): does not cause death of the necrosis pathway | IC50 (HepG2 (Hepatocellular)): 4.52 µg/mL (≈ 9.43 µM) | IC50 [1]: 7.46 µg/mL (≈ 15.6 µM) | Early apoptosis (cell death) (MCF-7): significant rate of cell death in early apoptosis | Necrosis (MCF-7): does not cause death of the necrosis pathway | IC50 (MCF-7 (breast cells)): 6.47 µg/mL (≈ 13.5 µM)

COc1ccc2cc([C@H](C)c3nnc(SCc4cn(-c5ccccc5Cl)nn4)o3)ccc2c1 [Compound 10]
IC50 (EGFR): 670 ± 330 nM | Early apoptosis (cell death) (HCT 116): significant rate of cell death in early apoptosis | Early apoptosis (cell death) (HepG2): significant rate of cell death in early apoptosis | IC50 (HepG2 (Hepatocellular)): 3.53 µg/mL (≈ 7.39 µM) | IC50 [1]: 33.9 µg/mL (≈ 70.9 µM) | Early apoptosis (cell death) (MCF-7): significant rate of cell death in early apoptosis | IC50 (MCF-7 (breast cells)): 5.05 µg/mL (≈ 10.6 µM)

COc1ccc2cc([C@H](C)c3nnc(SCc4cn(-c5cccc(Cl)c5)nn4)o3)ccc2c1 [Compound 11]
IC50 (HepG2 (Hepatocellular)): 37.9 µg/mL (≈ 79.3 µM) | IC50 [1]: 83.9 µg/mL (≈ 176 µM) | IC50 (MCF-7 (breast cells)): 60.5 µg/mL (≈ 126 µM)

COc1ccc2cc([C@H](C)c3nnc(SCc4cn(-c5ccc(Cl)cc5Cl)nn4)o3)ccc2c1 [Compound 12]
melting point: 102 to 103 °C | IC50 (HepG2 (Hepatocellular)): 26.4 µg/mL (≈ 51.5 µM) | IC50 [1]: 28.1 µg/mL (≈ 54.9 µM) | IC50 (MCF-7 (breast cells)): 45.7 µg/mL (≈ 89.2 µM)

COc1ccc2cc([C@H](C)c3nnc(SCc4cn(-c5cccc(Br)c5)nn4)o3)ccc2c1 [Compound 13]
IC50 (EGFR): 3420 ± 110 nM | IC50 (HepG2 (Hepatocellular)): 7.07 µg/mL (≈ 13.5 µM) | IC50 [1]: 29.3 µg/mL (≈ 56 µM) | IC50 (MCF-7 (breast cells)): 15.8 µg/mL (≈ 30.3 µM)

COc1ccc2cc([C@H](C)c3nnc(SCc4cn(-c5ccc(Br)cc5)nn4)o3)ccc2c1 [Compound 14]
IC50 (EGFR): 5120 ± 210 nM | melting point: 160 to 161 °C | IC50 (HepG2 (Hepatocellular)): 7.63 µg/mL (≈ 14.6 µM) | IC50 [1]: 86.1 µg/mL (≈ 165 µM) | IC50 (MCF-7 (breast cells)): 7.5 µg/mL (≈ 14.4 µM)

COc1ccc2cc([C@H](C)c3nnc(SCc4cn(-c5ccccc5O)nn4)o3)ccc2c1 [Compound 15, 2-(4-((5-((S)-1-(2-methoxynaphthalen-6-yl)ethyl)-1,3,4-oxadiazol-2-ylthio)methyl)-1H-1,2,3-triazol-1-yl)phenol]
IC50 (EGFR): 410 ± 120 nM | Early apoptosis (cell death) (HCT 116): percentage of cell death decreased | Late apoptosis (HCT 116): induces more late apoptosis | Necrosis (HCT 116): high percentage of necrosis | Early apoptosis (cell death) (HepG2): percentage of cell death decreased | IC50 (HepG2 (Hepatocellular)): 1.63 µg/mL (≈ 3.55 µM) | IC50 [1]: 29.1 µg/mL (≈ 63.3 µM) | IC50 (MCF-7 (breast cells)): 2.13 µg/mL (≈ 4.64 µM)

COc1ccc2cc([C@H](C)c3nnc(SCc4cn(-c5cccc(C(=O)O)c5)nn4)o3)ccc2c1 [Compound 16]
IC50 (EGFR): 2270 ± 170 nM | Late apoptosis (HepG2): observed at a high rate | Necrosis (HepG2): high percentage of necrosis | IC50 (HepG2 (Hepatocellular)): 10.7 µg/mL (≈ 21.9 µM) | IC50 [1]: 8.36 µg/mL (≈ 17.1 µM) | Late apoptosis (MCF-7): observed at a high rate | Necrosis (MCF-7): high percentage of necrosis | IC50 (MCF-7 (breast cells)): 10.4 µg/mL (≈ 21.4 µM)

COc1ccc2cc([C@H](C)c3nnc(SCC(=O)Nc4ccc(F)cc4)o3)ccc2c1 [Compound 19]
melting point: 220 to 221 °C

COc1ccc2cc([C@H](C)c3nnc(SCC(=O)Nc4ccc(F)cc4F)o3)ccc2c1 [Compound 20]
melting point: 102 to 103 °C | IC50 (HepG2 (Hepatocellular)): 31.3 µg/mL (≈ 68.8 µM) | IC50 [1]: 73.4 µg/mL (≈ 161 µM) | IC50 (MCF-7 (breast cells)): 32.6 µg/mL (≈ 71.7 µM)

COc1ccc2cc([C@H](C)c3nnc(SCC(=O)Nc4cccc(Cl)c4)o3)ccc2c1 [Compound 21]
IC50 (EGFR): 820 ± 280 nM | IC50 (HepG2 (Hepatocellular)): 7 µg/mL (≈ 15.4 µM) | IC50 [1]: 1.24 µg/mL (≈ 2.73 µM) | IC50 (MCF-7 (breast cells)): 25.9 µg/mL (≈ 57.1 µM)

COc1ccc2cc([C@H](C)c3nnc(SCC(=O)Nc4cccc(Br)c4)o3)ccc2c1 [Compound 22]
melting point: 129 to 130 °C | IC50 (HepG2 (Hepatocellular)): > 100 µg/mL | IC50 (MCF-7 (breast cells)): > 100 µg/mL

COc1ccc2cc([C@H](C)c3nnc(SCC(=O)Nc4ccc(Br)cc4)o3)ccc2c1 [Compound 23]
melting point: 148 to 149 °C | IC50 (HepG2 (Hepatocellular)): 15 µg/mL (≈ 30 µM) | IC50 [1]: 35.1 µg/mL (≈ 70.5 µM) | IC50 (MCF-7 (breast cells)): 25.6 µg/mL (≈ 51.3 µM)

COc1ccc2cc([C@H](C)c3nnc(SCC(=O)Nc4ccccc4C)o3)ccc2c1 [Compound 24]
IC50 (EGFR): 1080 ± 310 nM | IC50 (HepG2 (Hepatocellular)): 4.88 µg/mL (≈ 11.3 µM) | IC50 [1]: 29.3 µg/mL (≈ 67.7 µM) | IC50 (MCF-7 (breast cells)): 8.15 µg/mL (≈ 18.8 µM)

COc1ccc2cc([C@H](C)c3nnc(SCC(=O)Nc4ccccc4C(=O)O)o3)ccc2c1 [Compound 25]
melting point: 130 to 131 °C | IC50 (HepG2 (Hepatocellular)): 28 µg/mL (≈ 60.5 µM) | IC50 [1]: 29.2 µg/mL (≈ 63 µM) | IC50 (MCF-7 (breast cells)): 29.8 µg/mL (≈ 64.3 µM)

COc1ccc2cc([C@H](C)c3nnc(SCC(=O)N4CCOCC4)o3)ccc2c1 [Compound 26]
IC50 (HepG2 (Hepatocellular)): 23.6 µg/mL (≈ 57.2 µM) | IC50 [1]: 11.1 µg/mL (≈ 26.8 µM) | IC50 (MCF-7 (breast cells)): 22.3 µg/mL (≈ 53.9 µM)

COc1cccc2c1C(=O)c1c(O)c3c(c(O)c1C2=O)C[C@@](O)(C(=O)CO)C[C@@H]3O[C@H]1C[C@H](N)[C@H](O)[C@H](C)O1 [Doxorubicin, reference compound]
IC50 (HepG2 (Hepatocellular)): 1.62 µg/mL (≈ 2.98 µM) | IC50 [1]: 2.11 µg/mL (≈ 3.88 µM) | IC50 (MCF-7 (breast cells)): 1.41 µg/mL (≈ 2.59 µM)
